Source: PMC5392334, “Discovery and characterization of a novel irreversible EGFR mutants selective and potent kinase inhibitor CHMFL-EGFR-26 with a distinct binding mode” (Oncotarget, 2017)

Assays:
CAMKK2 = biological target: T1, CAMKK2 (Homo sapiens, UniProt Q96RR4); experiment: KinomeScan; format: binding; details: read-out: % control
T1 construct: purchased DiscoveRx KINOMEscan

CDC2L1 = biological target: T2, CDC2L1 (Homo sapiens, UniProt P21127); experiment: KinomeScan; format: binding; details: read-out: % control
T2 construct: purchased DiscoveRx KINOMEscan

CDK9 = biological target: T3, CDK9 (Homo sapiens, UniProt P50750); experiment: KinomeScan; format: binding; details: read-out: % control
T3 construct: purchased DiscoveRx KINOMEscan

CDKL1 = biological target: T4, CDKL1 (Homo sapiens, UniProt Q00532); experiment: KinomeScan; format: binding; details: read-out: % control
T4 construct: purchased DiscoveRx KINOMEscan
T4 sequence (Q00532 whole entry): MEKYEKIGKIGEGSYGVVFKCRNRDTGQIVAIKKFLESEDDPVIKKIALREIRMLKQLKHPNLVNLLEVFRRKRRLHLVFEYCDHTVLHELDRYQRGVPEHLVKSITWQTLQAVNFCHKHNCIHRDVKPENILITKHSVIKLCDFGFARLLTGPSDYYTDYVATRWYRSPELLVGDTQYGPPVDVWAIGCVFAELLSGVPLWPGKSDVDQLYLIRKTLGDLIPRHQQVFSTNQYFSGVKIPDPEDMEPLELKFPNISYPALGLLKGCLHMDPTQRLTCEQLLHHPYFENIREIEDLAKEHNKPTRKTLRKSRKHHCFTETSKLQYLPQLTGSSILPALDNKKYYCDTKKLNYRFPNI

CDKL2 = biological target: T5, CDKL2 (Homo sapiens, UniProt Q92772); experiment: KinomeScan; format: binding; details: read-out: % control
T5 construct: purchased DiscoveRx KINOMEscan

DAPK1 = biological target: T6, DAPK1 (Homo sapiens, UniProt P53355); experiment: KinomeScan; format: binding; details: read-out: % control
T6 construct: purchased DiscoveRx KINOMEscan

DDR2 = biological target: T7, DDR2 (Homo sapiens, UniProt Q16832); experiment: KinomeScan; format: binding; details: read-out: % control
T7 construct: purchased DiscoveRx KINOMEscan

EGFR(L858R) = biological target: T8, EGFR(L858R) (Homo sapiens, UniProt P00533, L858R); experiment: KinomeScan; format: binding; details: read-out: % control
T8 construct: purchased DiscoveRx KINOMEscan

EGFR(L858R,T790M) = biological target: T9, EGFR(L858R,T790M) (Homo sapiens, UniProt P00533, L858R/T790M); experiment: KinomeScan; format: binding; details: read-out: % control
T9 construct: purchased DiscoveRx KINOMEscan

EPHA5 = biological target: T10, EPHA5 (Homo sapiens, UniProt P54756); experiment: KinomeScan; format: binding; details: read-out: % control
T10 construct: purchased DiscoveRx KINOMEscan

FER = biological target: T11, FER (Homo sapiens, UniProt P16591); experiment: KinomeScan; format: binding; details: read-out: % control
T11 construct: purchased DiscoveRx KINOMEscan
T11 sequence (P16591 whole entry): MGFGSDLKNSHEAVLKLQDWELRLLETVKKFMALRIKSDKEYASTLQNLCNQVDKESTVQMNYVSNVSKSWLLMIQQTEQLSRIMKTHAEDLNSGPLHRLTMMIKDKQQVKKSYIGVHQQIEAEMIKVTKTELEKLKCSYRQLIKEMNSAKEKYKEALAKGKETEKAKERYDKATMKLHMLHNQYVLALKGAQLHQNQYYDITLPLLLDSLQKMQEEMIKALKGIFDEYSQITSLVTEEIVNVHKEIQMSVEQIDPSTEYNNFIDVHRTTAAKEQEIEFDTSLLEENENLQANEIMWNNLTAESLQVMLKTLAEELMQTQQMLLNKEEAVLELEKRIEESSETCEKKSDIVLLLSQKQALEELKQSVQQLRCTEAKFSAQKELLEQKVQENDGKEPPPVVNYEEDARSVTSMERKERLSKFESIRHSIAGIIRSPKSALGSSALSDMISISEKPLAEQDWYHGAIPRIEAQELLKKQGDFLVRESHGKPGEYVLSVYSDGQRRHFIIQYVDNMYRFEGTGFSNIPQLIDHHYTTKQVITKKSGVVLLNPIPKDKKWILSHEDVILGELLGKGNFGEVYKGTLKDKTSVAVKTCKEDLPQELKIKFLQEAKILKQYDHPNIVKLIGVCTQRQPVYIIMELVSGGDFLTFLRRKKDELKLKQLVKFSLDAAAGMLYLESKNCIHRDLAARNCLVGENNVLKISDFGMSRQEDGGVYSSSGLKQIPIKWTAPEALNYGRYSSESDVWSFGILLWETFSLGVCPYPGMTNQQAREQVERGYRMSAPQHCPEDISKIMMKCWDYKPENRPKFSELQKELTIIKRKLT

FLT1 = biological target: T12, FLT1 (Homo sapiens, UniProt P17948); experiment: KinomeScan; format: binding; details: read-out: % control
T12 construct: purchased DiscoveRx KINOMEscan

FLT3(D835H) = biological target: T13, FLT3(D835H) (Homo sapiens, UniProt P36888, D835H); experiment: KinomeScan; format: binding; details: read-out: % control
T13 construct: purchased DiscoveRx KINOMEscan

HPK1 = biological target: T14, HPK1 (Homo sapiens, UniProt Q92918); experiment: KinomeScan; format: binding; details: read-out: % control
T14 construct: purchased DiscoveRx KINOMEscan

IGF1R = biological target: T15, IGF1R (Homo sapiens, UniProt P08069); experiment: KinomeScan; format: binding; details: read-out: % control
T15 construct: purchased DiscoveRx KINOMEscan
T15 sequence (P08069 31-1367): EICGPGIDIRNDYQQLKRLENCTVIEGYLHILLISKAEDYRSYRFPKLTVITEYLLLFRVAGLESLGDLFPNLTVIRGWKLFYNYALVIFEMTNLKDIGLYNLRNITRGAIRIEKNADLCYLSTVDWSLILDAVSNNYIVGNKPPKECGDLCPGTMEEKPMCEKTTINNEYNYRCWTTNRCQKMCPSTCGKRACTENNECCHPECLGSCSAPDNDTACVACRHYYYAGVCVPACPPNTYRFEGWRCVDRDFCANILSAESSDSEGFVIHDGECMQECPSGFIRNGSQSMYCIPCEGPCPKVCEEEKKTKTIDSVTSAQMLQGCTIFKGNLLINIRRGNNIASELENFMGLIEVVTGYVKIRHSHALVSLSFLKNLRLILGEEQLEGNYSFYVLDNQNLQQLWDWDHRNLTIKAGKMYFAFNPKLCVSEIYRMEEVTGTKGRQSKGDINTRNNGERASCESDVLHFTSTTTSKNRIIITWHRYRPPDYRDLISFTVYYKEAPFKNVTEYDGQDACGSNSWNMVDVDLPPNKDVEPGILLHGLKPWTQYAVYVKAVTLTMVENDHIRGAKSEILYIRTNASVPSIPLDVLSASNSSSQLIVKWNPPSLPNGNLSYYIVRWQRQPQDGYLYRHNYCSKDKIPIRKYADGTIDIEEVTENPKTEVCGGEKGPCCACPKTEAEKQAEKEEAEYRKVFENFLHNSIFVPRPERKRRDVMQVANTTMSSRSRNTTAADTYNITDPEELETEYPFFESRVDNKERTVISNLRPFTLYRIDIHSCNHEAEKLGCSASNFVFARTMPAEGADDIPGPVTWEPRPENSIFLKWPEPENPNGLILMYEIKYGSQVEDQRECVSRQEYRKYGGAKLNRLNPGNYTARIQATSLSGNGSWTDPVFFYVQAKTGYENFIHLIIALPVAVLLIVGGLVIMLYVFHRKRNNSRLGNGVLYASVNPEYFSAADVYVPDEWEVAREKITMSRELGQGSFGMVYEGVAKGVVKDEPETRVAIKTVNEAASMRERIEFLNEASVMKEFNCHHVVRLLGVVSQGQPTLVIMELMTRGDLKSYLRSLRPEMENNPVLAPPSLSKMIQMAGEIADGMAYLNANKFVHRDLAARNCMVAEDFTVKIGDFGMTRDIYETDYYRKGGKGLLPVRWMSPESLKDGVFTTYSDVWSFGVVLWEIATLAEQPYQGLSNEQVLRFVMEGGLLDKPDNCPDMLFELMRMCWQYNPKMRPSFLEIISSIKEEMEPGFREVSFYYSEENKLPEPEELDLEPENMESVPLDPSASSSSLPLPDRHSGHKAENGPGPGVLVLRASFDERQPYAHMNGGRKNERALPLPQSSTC

KIT(D816V) = biological target: T16, KIT(D816V) (Homo sapiens, UniProt P10721, D816V); experiment: KinomeScan; format: binding; details: read-out: % control
T16 construct: purchased DiscoveRx KINOMEscan
T16 sequence (P10721 26-976 D816V): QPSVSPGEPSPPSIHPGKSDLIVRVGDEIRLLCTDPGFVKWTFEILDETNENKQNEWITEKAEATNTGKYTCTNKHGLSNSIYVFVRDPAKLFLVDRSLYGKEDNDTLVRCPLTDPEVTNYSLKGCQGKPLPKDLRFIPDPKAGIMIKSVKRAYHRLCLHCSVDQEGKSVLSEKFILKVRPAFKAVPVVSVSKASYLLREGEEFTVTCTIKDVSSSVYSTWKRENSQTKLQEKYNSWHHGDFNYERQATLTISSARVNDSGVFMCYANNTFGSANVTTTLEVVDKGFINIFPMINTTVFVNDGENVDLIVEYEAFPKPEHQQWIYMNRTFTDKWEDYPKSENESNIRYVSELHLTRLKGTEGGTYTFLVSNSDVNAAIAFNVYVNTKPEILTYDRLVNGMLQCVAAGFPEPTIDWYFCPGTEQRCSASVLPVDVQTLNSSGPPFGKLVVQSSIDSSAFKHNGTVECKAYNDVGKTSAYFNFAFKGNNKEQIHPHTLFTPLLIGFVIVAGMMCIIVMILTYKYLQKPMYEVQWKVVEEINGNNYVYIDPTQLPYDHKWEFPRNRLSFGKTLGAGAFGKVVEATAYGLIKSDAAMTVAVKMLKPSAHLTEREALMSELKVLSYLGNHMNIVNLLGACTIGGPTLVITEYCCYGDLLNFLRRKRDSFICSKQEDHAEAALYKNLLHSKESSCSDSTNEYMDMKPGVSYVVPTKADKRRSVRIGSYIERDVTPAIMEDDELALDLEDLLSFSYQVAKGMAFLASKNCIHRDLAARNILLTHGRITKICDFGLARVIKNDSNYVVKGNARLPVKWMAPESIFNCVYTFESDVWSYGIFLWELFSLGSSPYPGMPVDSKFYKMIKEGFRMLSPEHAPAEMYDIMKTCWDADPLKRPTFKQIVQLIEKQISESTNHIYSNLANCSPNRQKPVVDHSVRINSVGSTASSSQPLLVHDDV

LRRK2 = biological target: T17, LRRK2 (Homo sapiens, UniProt Q5S007); experiment: KinomeScan; format: binding; details: read-out: % control
T17 construct: purchased DiscoveRx KINOMEscan

MAP4K2 = biological target: T18, MAP4K2 (Homo sapiens, UniProt Q12851); experiment: KinomeScan; format: binding; details: read-out: % control
T18 construct: purchased DiscoveRx KINOMEscan

MAP4K5 = biological target: T19, MAP4K5 (Homo sapiens, UniProt Q9Y4K4); experiment: KinomeScan; format: binding; details: read-out: % control
T19 construct: purchased DiscoveRx KINOMEscan
T19 sequence (Q9Y4K4 whole entry): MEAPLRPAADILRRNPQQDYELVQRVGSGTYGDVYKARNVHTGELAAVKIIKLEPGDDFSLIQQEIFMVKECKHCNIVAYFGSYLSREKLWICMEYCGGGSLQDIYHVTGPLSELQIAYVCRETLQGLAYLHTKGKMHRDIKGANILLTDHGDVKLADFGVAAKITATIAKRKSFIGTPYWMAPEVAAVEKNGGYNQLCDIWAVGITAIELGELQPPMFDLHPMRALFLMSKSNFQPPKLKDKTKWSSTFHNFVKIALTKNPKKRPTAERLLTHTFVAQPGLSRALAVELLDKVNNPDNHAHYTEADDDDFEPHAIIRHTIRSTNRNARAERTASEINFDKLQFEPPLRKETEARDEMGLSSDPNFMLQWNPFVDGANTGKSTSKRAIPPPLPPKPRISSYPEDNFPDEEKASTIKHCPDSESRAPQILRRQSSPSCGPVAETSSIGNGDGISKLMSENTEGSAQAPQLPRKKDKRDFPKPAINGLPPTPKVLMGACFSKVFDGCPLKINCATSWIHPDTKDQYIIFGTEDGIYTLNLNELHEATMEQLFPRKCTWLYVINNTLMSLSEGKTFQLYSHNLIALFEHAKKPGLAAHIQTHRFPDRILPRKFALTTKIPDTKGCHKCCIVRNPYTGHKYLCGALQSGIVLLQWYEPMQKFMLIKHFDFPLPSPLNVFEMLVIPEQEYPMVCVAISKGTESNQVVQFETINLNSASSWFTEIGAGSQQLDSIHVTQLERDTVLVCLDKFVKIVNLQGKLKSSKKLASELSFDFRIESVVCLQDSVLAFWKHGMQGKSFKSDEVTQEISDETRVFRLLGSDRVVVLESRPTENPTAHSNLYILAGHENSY

MET(M1250T) = biological target: T20, MET(M1250T) (Homo sapiens, UniProt P08581, M1250T); experiment: KinomeScan; format: binding; details: read-out: % control
T20 construct: purchased DiscoveRx KINOMEscan

MUSK = biological target: T21, MUSK (Homo sapiens, UniProt O15146); experiment: KinomeScan; format: binding; details: read-out: % control
T21 construct: purchased DiscoveRx KINOMEscan

PDGFRB = biological target: T22, PDGFRB (Homo sapiens, UniProt P09619); experiment: KinomeScan; format: binding; details: read-out: % control
T22 construct: purchased DiscoveRx KINOMEscan

PIK3C2G = biological target: T23, PIK3C2G (Homo sapiens, UniProt O75747); experiment: KinomeScan; format: binding; details: read-out: % control
T23 construct: purchased DiscoveRx KINOMEscan

PIK3CA(E545K) = biological target: T24, PIK3CA(E545K) (Homo sapiens, UniProt P42336, E545K); experiment: KinomeScan; format: binding; details: read-out: % control
T24 construct: purchased DiscoveRx KINOMEscan

PIK3CA(H1047L) = biological target: T25, PIK3CA(H1047L) (Homo sapiens, UniProt P42336, H1047L); experiment: KinomeScan; format: binding; details: read-out: % control
T25 construct: purchased DiscoveRx KINOMEscan

PIP5K2B = biological target: T26, PIP5K2B (Homo sapiens, UniProt P78356); experiment: KinomeScan; format: binding; details: read-out: % control
T26 construct: purchased DiscoveRx KINOMEscan

PKAC-alpha = biological target: T27, PKAC-alpha (Homo sapiens, UniProt P17612); experiment: KinomeScan; format: binding; details: read-out: % control
T27 construct: purchased DiscoveRx KINOMEscan

PRKD2 = biological target: T28, PRKD2 (Homo sapiens, UniProt Q9BZL6); experiment: KinomeScan; format: binding; details: read-out: % control
T28 construct: purchased DiscoveRx KINOMEscan

RIOK3 = biological target: T29, RIOK3 (Homo sapiens, UniProt O14730); experiment: KinomeScan; format: binding; details: read-out: % control
T29 construct: purchased DiscoveRx KINOMEscan

[1] = biological target: T30, RSK4(Kin.Dom.2-C-terminal) (Homo sapiens, UniProt Q9UK32); experiment: KinomeScan; format: binding; details: read-out: % control
T30 construct: RSK4(Kin.Dom.2-C-terminal); purchased DiscoveRx KINOMEscan

SBK1 = biological target: T31, SBK1 (Homo sapiens, UniProt Q52WX2); experiment: KinomeScan; format: binding; details: read-out: % control
T31 construct: purchased DiscoveRx KINOMEscan

SGK3 = biological target: T32, SGK3 (Homo sapiens, UniProt Q96BR1); experiment: KinomeScan; format: binding; details: read-out: % control
T32 construct: purchased DiscoveRx KINOMEscan
T32 sequence (Q96BR1 whole entry): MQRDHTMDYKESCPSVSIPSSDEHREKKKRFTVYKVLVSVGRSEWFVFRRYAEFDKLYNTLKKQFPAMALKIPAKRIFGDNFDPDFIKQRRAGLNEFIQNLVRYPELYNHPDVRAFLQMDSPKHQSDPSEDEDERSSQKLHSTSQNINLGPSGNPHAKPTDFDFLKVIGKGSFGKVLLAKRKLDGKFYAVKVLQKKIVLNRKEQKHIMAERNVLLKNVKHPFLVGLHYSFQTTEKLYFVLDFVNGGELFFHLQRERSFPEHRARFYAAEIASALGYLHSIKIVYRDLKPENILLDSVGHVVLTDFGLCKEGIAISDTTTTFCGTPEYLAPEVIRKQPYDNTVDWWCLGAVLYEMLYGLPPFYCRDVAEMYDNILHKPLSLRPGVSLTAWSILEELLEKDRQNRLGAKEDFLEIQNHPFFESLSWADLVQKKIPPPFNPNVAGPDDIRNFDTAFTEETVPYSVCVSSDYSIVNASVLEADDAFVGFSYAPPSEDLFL

TEC = biological target: T33, TEC (Homo sapiens, UniProt P42680); experiment: KinomeScan; format: binding; details: read-out: % control
T33 construct: purchased DiscoveRx KINOMEscan

TGFBR2 = biological target: T34, TGFBR2 (Homo sapiens, UniProt P37173); experiment: KinomeScan; format: binding; details: read-out: % control
T34 construct: purchased DiscoveRx KINOMEscan

TRKA = biological target: T35, TRKA (Homo sapiens, UniProt P04629); experiment: KinomeScan; format: binding; details: read-out: % control
T35 construct: purchased DiscoveRx KINOMEscan

ULK1 = biological target: T36, ULK1 (Homo sapiens, UniProt O75385); experiment: KinomeScan; format: binding; details: read-out: % control
T36 construct: purchased DiscoveRx KINOMEscan

WEE2 = biological target: T37, WEE2 (Homo sapiens, UniProt P0C1S8); experiment: KinomeScan; format: binding; details: read-out: % control
T37 construct: purchased DiscoveRx KINOMEscan

ZAK = biological target: T38, ZAK (Homo sapiens, UniProt Q9NYL2); experiment: KinomeScan; format: binding; details: read-out: % control
T38 construct: purchased DiscoveRx KINOMEscan

Parental BaF3 = experiment: Anti-proliferation, BaF3 isogenic cell lines (CellTiter-Glo); format: cell-based; details: Mus musculus
BaF3-TEL-EGFR-L858R = experiment: as above; format: cell-based; details: Mus musculus, 72 hours, triplet testing
BaF3-FL-EGFR-L858R-T790M = experiment: as above; format: cell-based; details: Mus musculus, 72 hours, triplet testing
BaF3-IGF1R = experiment: Anti-proliferative effects, IGF1R transformed isogenic BaF3 cells; format: cell-based; details: Mus musculus, read-out: IC50 (anti-proliferative; GI50)

C=CC(=O)N1CCC[C@@H](n2nc(-c3ccc(OCc4cccc(C)n4)c(Cl)c3)c3c(N)ncnc32)C1 [CHMFL-EGFR-26]
remaining binding at 1 µM (CAMKK2): 75% | remaining binding at 1 µM (CDC2L1): 86% | remaining binding at 1 µM (CDK9): 90% | remaining binding at 1 µM (CDKL1): 100% | remaining binding at 1 µM (CDKL2): 100% | remaining binding at 1 µM (DAPK1): 77% | remaining binding at 1 µM (DDR2): 90% | remaining binding at 1 µM (EGFR(L858R)): 2.5% | remaining binding at 1 µM (EGFR(L858R,T790M)): 2.8% | remaining binding at 1 µM (EPHA5): 100% | remaining binding at 1 µM (FER): 56% | remaining binding at 1 µM (FLT1): 93% | remaining binding at 1 µM (FLT3(D835H)): 100% | remaining binding at 1 µM (HPK1): 100% | remaining binding at 1 µM (IGF1R): 100% | remaining binding at 1 µM (KIT(D816V)): 100% | remaining binding at 1 µM (LRRK2): 100% | remaining binding at 1 µM (MAP4K2): 100% | remaining binding at 1 µM (MAP4K5): 54% | remaining binding at 1 µM (MET(M1250T)): 90% | remaining binding at 1 µM (MUSK): 84% | remaining binding at 1 µM (PDGFRB): 94% | remaining binding at 1 µM (PIK3C2G): 100% | remaining binding at 1 µM (PIK3CA(E545K)): 81% | remaining binding at 1 µM (PIK3CA(H1047L)): 81% | remaining binding at 1 µM (PIP5K2B): 100% | remaining binding at 1 µM (PKAC-alpha): 100% | remaining binding at 1 µM (PRKD2): 81% | remaining binding at 1 µM (RIOK3): 82% | remaining binding at 1 µM [1]: 72% | remaining binding at 1 µM (SBK1): 100% | remaining binding at 1 µM (SGK3): 83% | remaining binding at 1 µM (TEC): 13% | remaining binding at 1 µM (TGFBR2): 100% | remaining binding at 1 µM (TRKA): 55% | remaining binding at 1 µM (ULK1): 85% | remaining binding at 1 µM (WEE2): 84% | remaining binding at 1 µM (ZAK): 100% | IC50 (Parental BaF3; Parental BaF3, Supplementary Table 3, read-out: IC50 (anti-proliferative)): 9 µM | GI50 (Parental BaF3; Parental BaF3, 72 hours, triplet testing): > 10 µM | GI50 (BaF3-TEL-EGFR-L858R): < 0.3 nM | GI50 (BaF3-FL-EGFR-L858R-T790M): 6 nM | IC50 (BaF3-IGF1R): 3.6 µM
